Values quoted from earlier work in patent US20100048608A1, “Histone Deacetylase Inhibitors for the Treatment of Ocular Neovascular or Edematous Disorders and Diseases” (ALCON, INC., priority 2002, published 2010).

How the values were obtained:
[1] = tested on: corneal neovascularization; conditions: in combination with a beta cyclodextrin; Li et al. 1991
[2] = tested on: cancer cell; conditions: Munster et al. 2001
[3] = tested on: cancer cell; conditions: Butler et al. 2002
[4] = tested on: tumors; conditions: Butler et al. 2000
[5] = phase I clinical trials; Kelly et al. 2001

C[C@]12CC[C@@H](O)C[C@H]1CC[C@@H]1[C@@H]2CC[C@@]2(C)[C@H]1CC[C@]2(O)C(=O)CO [tetrahydrocortisol-S]
inhibition of corneal neovascularization [1]: inhibit corneal neovascularization

C[C@]12CCC(=O)C=C1CC[C@@H]1[C@@H]2[C@@H](O)C[C@@]2(C)[C@H]1CC[C@]2(O)C(=O)CO [hydrocortisone]
inhibition of corneal neovascularization [1]: inhibit corneal neovascularization

O=C(CCCCCCC(=O)Nc1ccccc1)NO [SAHA, suberoylanilide hydroxamic acid]
induction of cancer cell differentiation [2]: potent inducer of cancer cell differentiation
cancer cell growth in vitro [3]: arrest cancer cell growth in vitro
effect on tumors in animal models [4]: shrink tumors in animal models
dose-limiting toxicity [5]: almost no dose-limiting toxicity
suppression of white blood cell production [5]: no suppression of white blood cell production

C[C@@H]1C[C@H]2[C@@H]3C[C@H](F)C4=CC(=O)CC[C@]4(C)C3=CC[C@]2(C)[C@@]1(O)C(=O)CO [U-72,745G]
inhibition of corneal neovascularization [1]: inhibit corneal neovascularization
